In brackets after ≈: the same amount, converted by molar mass. Entries after “also recorded” stand apart in the source; their conditions may differ. Like-named read-outs stand apart in the source and are kept apart here.
Columns and labels:
S. aureus ATCC 29213 = assay: MIC determination; assay type: cell-based, Staphylococcus aureus; details: for antibacterial activity in words (SAR, ring A derivatives): S. aureus ATCC 29213, compounds of Schemes 3-4; for S. aureus ATCC 29213 MIC: Table 3.1, compounds of Schemes 2-4
E. faecium NCTC 7171 = assay: MIC determination; assay type: cell-based, Enterococcus faecium; details: for MIC: Enterococcus faecium
[1] = Staphylococcus aureus, ATCC29213, Table 3.1 and SAR text, compounds of Schemes 2-4, read-out: S. aureus ATCC 29213 MIC
[2] = NCTC7171, Table 3.1, compounds of Schemes 2-4, read-out: E. faecium NCTC 7171 MIC
[3] = Staphylococcus aureus, ATCC29213, read-out: S. aureus ATCC 29213 MIC
[4] = NCTC7171, read-out: E. faecium NCTC 7171 MIC
[5] = S. aureus ATCC29213, second numbering, compounds of Scheme 6
[6] = Table 3.1, compounds of Schemes 2-4

Structure (SMILES) | MIC (S. aureus ATCC 29213; [1]) [µg/mL] | MIC (E. faecium NCTC 7171; [2]) [µg/mL] | also measured
Brc1c[nH]nc1-c1nc(-c2ccc(Oc3ccccc3)cc2)no1 [61a] | 1 (≈ 2.61 µM) | 16 (≈ 41.8 µM) | 
Ic1c[nH]nc1-c1nc(-c2ccc(Oc3ccccc3)cc2)no1 [62a] | 1 (≈ 2.32 µM) | 32 (≈ 74.4 µM) | 
Oc1ccc(-c2nc(-c3ccc(Oc4ccccc4)cc3)no2)cc1 [Compound 57a] | 1 (≈ 3.03 µM) | 1 (≈ 3.03 µM) | 
Oc1ccc(-c2nc(-c3ccc(Oc4ccc(F)cc4)cc3)no2)cc1 [Compound 57c] | 1 (≈ 2.87 µM) | 1 (≈ 2.87 µM) | 
Nc1ccc(-c2nc(-c3ccc(Oc4ccccc4)cc3)no2)cc1 [Compound 58a] |  |  | MIC (S. aureus ATCC 29213; [3]): 4 µg/mL (≈ 12.1 µM); MIC (E. faecium NCTC 7171; [4]): 2 µg/mL (≈ 6.07 µM)
Nc1ccc(-c2nc(-c3ccc(Oc4ccc(C(F)(F)F)cc4)cc3)no2)cc1 [Compound 58b] | 1 (≈ 2.52 µM) | 2 (≈ 5.03 µM) | 
Nc1ccc(-c2nc(-c3ccc(Oc4ccc(F)cc4)cc3)no2)cc1 [Compound 58c] | > 128 | > 128 | antibacterial activity in words (SAR, ring A derivatives) (S. aureus ATCC 29213): no antibiotic activity; also recorded: inactive
Clc1c[nH]nc1-c1nc(-c2ccc(Oc3ccccc3)cc2)no1 [Compound 60a] |  |  | MIC (S. aureus ATCC 29213; [5]): 8 µg/mL (≈ 23.6 µM); MIC (S. aureus ATCC 29213; [3]): 1 µg/mL (≈ 2.95 µM); MIC (E. faecium NCTC 7171; [4]): > 128 µg/mL
FC(F)(F)c1ccc(Oc2ccc(-c3noc(-c4n[nH]cc4Br)n3)cc2)cc1 [Compound 61b] | 1 (≈ 2.22 µM) | > 128 | 
FC(F)(F)c1ccc(Oc2ccc(-c3noc(-c4n[nH]cc4I)n3)cc2)cc1 [Compound 62b] | 2 (≈ 4.01 µM) | 32 (≈ 64.2 µM) | 
O=[N+]([O-])c1c[nH]nc1-c1nc(-c2ccc(Oc3ccc(C(F)(F)F)cc3)cc2)no1 [Compound 63b, 5-(4-Nitro-1H-pyrazole-3-yl)-3-(4-(4-(trifluoromethyl)phenoxy)phenyl)-1,2,4-oxadiazole] | 2 (≈ 4.79 µM) | 2 (≈ 4.79 µM) | 
O=[N+]([O-])c1c[nH]nc1-c1nc(-c2ccc(Oc3ccc(F)cc3)cc2)no1 [Compound 63c] | 1 (≈ 2.72 µM) | 4 (≈ 10.9 µM) | 
Nc1c[nH]nc1-c1nc(-c2ccc(Oc3ccccc3)cc2)no1 [Compound 64a] |  |  | antibacterial activity in words (SAR, C/D ring derivatives) (S. aureus ATCC 29213; [5]): retained activity; MIC (S. aureus ATCC 29213; [3]): 16 µg/mL (≈ 50.1 µM); MIC (E. faecium NCTC 7171; [4]): 32 µg/mL (≈ 100 µM)
Nc1c[nH]nc1-c1nc(-c2ccc(Oc3ccc(C(F)(F)F)cc3)cc2)no1 [Compound 64b, 3-(3-(4-(4-(Trifluoromethyl)phenoxy)phenyl)-1,2,4-oxadiazol-5-yl)-1H-pyrazol-4-amine] | 4 (≈ 10.3 µM) | 16 (≈ 41.3 µM) | 
Nc1c[nH]nc1-c1nc(-c2ccc(Oc3ccc(F)cc3)cc2)no1 [Compound 64c] | 16 (≈ 47.4 µM) | 32 (≈ 94.9 µM) | 
CC(C)Nc1c[nH]nc1-c1nc(-c2ccc(Oc3ccccc3)cc2)no1 [Compound 65a] |  |  | antibacterial activity in words (SAR, C/D ring derivatives) (S. aureus ATCC 29213; [5]): did not alter the activity; MIC (S. aureus ATCC 29213; [3]): 0.5 µg/mL (≈ 1.38 µM); MIC (E. faecium NCTC 7171; [4]): > 128 µg/mL
N#Cc1c[nH]nc1-c1nc(-c2ccc(Oc3ccc(C(F)(F)F)cc3)cc2)no1 [Compound 67b] | 2 (≈ 5.03 µM) | > 128 | antibacterial activity in words (SAR, ring A derivatives) (S. aureus ATCC 29213): good activity
Oc1ccc(-c2nc(-c3ccc(Oc4ccc(C(F)(F)F)cc4)cc3)no2)cc1O [Compound 69b] | 2 (≈ 4.83 µM) | 128 (≈ 309 µM) | 
Oc1ccc(-c2nc(-c3ccc(Oc4ccc(F)cc4)cc3)no2)cc1O [Compound 69c] | 4 (≈ 11 µM) | 8 (≈ 22 µM) | 
Oc1ccc(-c2nc(-c3ccc(Oc4ccccc4)cc3)no2)cc1F [Compound 70a] | 4 (≈ 11.5 µM) | 4 (≈ 11.5 µM) | 
Oc1ccc(-c2nc(-c3ccc(Oc4ccc(C(F)(F)F)cc4)cc3)no2)cc1F [Compound 70b] |  |  | S. aureus ATCC 29213 MIC (S. aureus ATCC 29213): 2 µg/mL; E. faecium NCTC 7171 MIC (E. faecium NCTC 7171; [6]): 2 µg/mL
Oc1ccc(-c2nc(-c3ccc(Oc4ccc(F)cc4)cc3)no2)cc1F [Compound 70c] | 2 (≈ 5.46 µM) | 2 (≈ 5.46 µM) | 
Oc1c(F)cc(-c2nc(-c3ccc(Oc4ccc(C(F)(F)F)cc4)cc3)no2)cc1F [Compound 71b] |  |  | S. aureus ATCC 29213 MIC (S. aureus ATCC 29213): 2 µg/mL; E. faecium NCTC 7171 MIC (E. faecium NCTC 7171; [6]): 2 µg/mL
Nc1ccc(-c2nc(-c3ccc(Oc4ccccc4)cc3)no2)cc1F [Compound 72a] |  |  | antibacterial activity in words (SAR, C/D ring derivatives) (S. aureus ATCC 29213; [5]): inactive; MIC (S. aureus ATCC 29213; [3]): > 128 µg/mL; MIC (E. faecium NCTC 7171; [4]): > 32 µg/mL
Oc1c(F)cc(-c2nc(-c3ccc(Oc4ccc(C(F)(F)F)cc4)cc3)no2)cc1F [Compound 73b] | 4 (≈ 9.21 µM) | 4 (≈ 9.21 µM) | 
Cl.c1ccc(Oc2ccc(-c3noc(C4CCNCC4)n3)cc2)cc1 [Compound 128a] |  |  | E. faecium NCTC 7171 MIC (E. faecium NCTC 7171; [6]): 16 µg/mL
Cl.c1ccc(Oc2ccc(-c3noc(C4CCCN4)n3)cc2)cc1 (stereo not shown) [Compound 132a] |  |  | E. faecium NCTC 7171 MIC (E. faecium NCTC 7171; [6]): 64 µg/mL
Cl.NC(Cc1ccccc1)c1nc(-c2ccc(Oc3ccccc3)cc2)no1 (stereo not shown) [Compound 136a] |  |  | E. faecium NCTC 7171 MIC (E. faecium NCTC 7171; [6]): >128 µg/mL
Oc1ccc(-c2nc(-c3ccc(OC4CCCC4)cc3)no2)cc1 [DR-03-235] |  |  | MIC S. aureus ATCC 29213 MH (S. aureus ATCC 29213; Mueller Hinton broth, Table 2.2, in µg/mL): 0.5-1

Second part, led by results:

MIC (S. aureus ATCC 29213; [1]) [µg/mL] | MIC (E. faecium NCTC 7171; [2]) [µg/mL] | Structure (SMILES) | also measured
8 (≈ 20.8 µM) | 4 (≈ 10.4 µM) | Oc1c(F)cc(-c2nc(-c3ccc(Oc4ccc(F)cc4)cc3)no2)cc1F [Compound 71c] | 
2 (≈ 4.82 µM) | 2 (≈ 4.82 µM) | Nc1ccc(-c2nc(-c3ccc(Oc4ccc(C(F)(F)F)cc4)cc3)no2)cc1F [Compound 72b] | 
 | 8 (≈ 23.2 µM) | Oc1ccc(Cc2nc(-c3ccc(Oc4ccccc4)cc3)no2)cc1 [Compound 74a] | 
2 (≈ 5.66 µM) | 2 (≈ 5.66 µM) | c1ccc(Oc2ccc(-c3noc(-c4ccc5[nH]ccc5c4)n3)cc2)cc1 [Compound 75a] | 
2 (≈ 5.39 µM) | 2 (≈ 5.39 µM) | Fc1ccc(Oc2ccc(-c3noc(-c4ccc5[nH]ccc5c4)n3)cc2)cc1 [Compound 75c] | 
> 128 | 128 (≈ 397 µM) | Fc1ccc(Oc2ccc(-c3noc(-c4cnc[nH]4)n3)cc2)cc1 [Compound 76c] | antibacterial activity in words (SAR, ring A derivatives) (S. aureus ATCC 29213): no activity
8 (≈ 18 µM) | 4 (≈ 9 µM) | O=[N+]([O-])c1cc(-c2nc(-c3ccc(Oc4ccc(C(F)(F)F)cc4)cc3)no2)cnc1O [Compound 77b] | 
8 (≈ 20.3 µM) | 4 (≈ 10.1 µM) | O=[N+]([O-])c1cc(-c2nc(-c3ccc(Oc4ccc(F)cc4)cc3)no2)cnc1O [Compound 77c] | 
8 (≈ 19.2 µM) | 64 (≈ 154 µM) | O=[N+]([O-])c1c[nH]c(-c2nc(-c3ccc(Oc4ccc(C(F)(F)F)cc4)cc3)no2)c1 [Compound 78b] | antibacterial activity in words (SAR, ring A derivatives) (S. aureus ATCC 29213): retained good activity
> 128 | 128 (≈ 349 µM) | O=[N+]([O-])c1c[nH]c(-c2nc(-c3ccc(Oc4ccc(F)cc4)cc3)no2)c1 [Compound 78c] | antibacterial activity in words (SAR, ring A derivatives) (S. aureus ATCC 29213): No activity
8 (≈ 20.7 µM) | > 128 | C=CCOc1cc(N)ncc1-c1nc(-c2ccc(Oc3ccccc3)cc2)no1 [Compound 79a] | 
> 1000 |  | Fc1ccc(-c2nc(-c3ccc(Oc4ccccc4)cc3)no2)cc1 [Compound 80a] | 
> 1200 |  | Fc1ccc(-c2nc(-c3ccc(Oc4ccc(C(F)(F)F)cc4)cc3)no2)cc1 [Compound 80b] | 
> 1000 |  | FC(F)(F)c1ccc(Oc2ccc(-c3noc(-c4ccc(Br)cc4)n3)cc2)cc1 [Compound 81b] | 
256 (≈ 583 µM) |  | CC(=O)Nc1ccc(-c2nc(-c3ccc(Oc4ccc(C(F)(F)F)cc4)cc3)no2)cc1 [Compound 83b] | 
 | > 128 | O=C1C[C@H](c2nc(-c3ccc(Oc4ccc(C(F)(F)F)cc4)cc3)no2)CN1 [Compound 133b] | 
 | > 128 | O=C1C[C@@H](c2nc(-c3ccc(Oc4ccc(C(F)(F)F)cc4)cc3)no2)CN1 [Compound 134b] | 
 | > 128 | O=c1cc(-c2nc(-c3ccc(Oc4ccc(C(F)(F)F)cc4)cc3)no2)[nH]c(=O)[nH]1 [Compound 135b] | 

Reference: patent publication US10662164B2, “Non-beta lactam antibiotics” (University of Notre Dame du Lac, priority 2014, dated 2020)
